Bridges are numbered along the chain shown (N, C = ends). Roman numbers before positions name the chains, in order. Where no end group is shown, it is not given here.
Legend:
[1] = molecular target: T1, recombinant neprilysin (NEP) (Homo sapiens, UniProt P08473); experiment: Neprilysin activity assay with recombinant enzyme (SensoLyte 520); format: biochemical; details: four to five independent experiments; for activity of recombinant NEP: dose-dependent, NL1 0.1, 0.3, 1, 3 μM, neurolide 1, 5, 10, 100 μM, 5-FAM/QXL substrate, Ex/Em 485/535 nm, 2 h
T1 construct: purchased Anaspec, Fremont, California, USA (SensoLyte 520 Neprilysin Activity Assay Kit)
Method: NEP activity was measured using the SensoLyte 520 Neprilysin Activity Assay Kit *Fluorimetric* (Anaspec, Fremont, California, USA) following the protocol provided by the manufacturer. Briefly, Aβ1-42 was dissolved in anhydrous DMSO to a stock concentration of 5 mM, followed by dilutions in assay buffer (100 μM, 50 μM, and 5 μM). Both NL1 (3 μM, 1 μM, 0.3 μM, 0.1 μM) and neurolide (100, 10, 5, and 1 μM) were dissolved in assay buffer. Randomly selected two additional NL1-derived peptides, NLp4, and NLp7 (5 μM, Table 1), were included in the analysis. The NEP solution (40 μl) was mixed with 10 μl of either NL1 or peptides and supplemented with 50 μl of NEP substrate (5-FAM/QXL), and the final mixture was incubated in black optical-bottom 96-well plate (Nunc, Rochester, New York, USA). In co-stimulation experiments, Aβ1-42, prepared as described above, was added to the solution in final concentrations either 0.5 μM or 5 μM. The fluorescence signal was recorded at Ex/Em = 485/535 nm every 20 min for 2 h. The data are presented as the relative activity of NEP alone.

Aβ1-42 = molecular target: T2, Aβ1-42 (Homo sapiens, UniProt P05067); experiment: Aβ1-42 aggregation assay (thioflavin T fluorescence); details: 8 days, 50 mM Tris pH 7.4, ThT 5 μM, triplicates, slopes compared with Aβ alone
T2 construct: Aβ1-42, at a final concentration of 75 μM (pH 7.4); purchased Bachem AG (Bubendorf, Switzerland) or Schafer-N; host or cells: synthetic peptide
Method: Aβ1-42 was dissolved in sterile deionized water to a final concentration of 1 mM. Then, the peptide was subjected to a basic shock by adding 2 M NaOH to pH 12 followed by neutralization with 1 M HCl. Aβ1-42, at a final concentration of 75 μM (pH 7.4) either alone or in combination with NL1 (1 μM), neurolide (10 μM), or NLp7 (10 μM), was loaded in triplicates on 96-well plate. Immediately after mixing the samples, thioflavin T (5 μM, ThT; Sigma-Aldrich), dissolved in the aggregation buffer (50 mM Tris, pH 7.4), was added to wells and plate was incubated at 37 °C for 8 days. The formation of beta-amyloid aggregates was monitored first for 210 min and then every 24 h by recording changes in ThT fluorescence at excitation/emission (Ex/Em) = 440/482 nm.

[2] = Integrity after prolonged incubation under aggregation assay conditions (immunoblot); format: physicochemical; details: aggregation buffer 50 mM Tris pH 7.4, 37 °C, 8 days; His-tagged NL1 200 nM, biotinylated neurolide 6.7 μM; SDS-PAGE and Western blot versus fresh samples
Method: After 8-day incubation, they were subjected to conventional SDS polyacrylamide gel electrophoresis on a pre-casted gel (Any kD Mini-PROTEAN TGX gel, Bio-Rad) and transferred to a PVDF membranes (Millipore) together with freshly prepared samples of sNL1 and b-neurolide as corresponding positive controls. Subsequently, membranes were blocked in 5% (wt/vol) non-fat dry milk in PBST (PBS containing 0.05% [vol/vol] Tween-20). To detect sNL1, blots were probed overnight with a 6x-His tag monoclonal antibody (1:2000, Thermo Fisher Scientific) at 4 °C, followed by incubation for 1 h at room temperature with an anti-mouse horseradish peroxidase (HRP)-conjugated secondary antibody (1:10,000, Thermo Fisher Scientific). B-neurolide was detected by incubation for 1 h at room temperature with a streptavidin-HRP complex (1:5000, Dako). Chemiluminescent signal on the blot was developed by employing the SuperSignal ELISA Femto Substrate kit (Thermo Fisher Scientific) according to the manufacturer’s instructions, and images were acquired using an AlphaImager system (Alpha Innotech).
Supplementary file 12035_2024_4475_Fig8_ESM.png: Supplementary Fig. 3. […] NL1 (200 nM; R&D Systems) and biotinylated neurolide (6.7 μM; Schafer-N) were dissolved in the aggregation buffer, incubated at 37°C for 8 days, followed by conventional immunoblotting. […]

T1 sequence (P08473 whole entry): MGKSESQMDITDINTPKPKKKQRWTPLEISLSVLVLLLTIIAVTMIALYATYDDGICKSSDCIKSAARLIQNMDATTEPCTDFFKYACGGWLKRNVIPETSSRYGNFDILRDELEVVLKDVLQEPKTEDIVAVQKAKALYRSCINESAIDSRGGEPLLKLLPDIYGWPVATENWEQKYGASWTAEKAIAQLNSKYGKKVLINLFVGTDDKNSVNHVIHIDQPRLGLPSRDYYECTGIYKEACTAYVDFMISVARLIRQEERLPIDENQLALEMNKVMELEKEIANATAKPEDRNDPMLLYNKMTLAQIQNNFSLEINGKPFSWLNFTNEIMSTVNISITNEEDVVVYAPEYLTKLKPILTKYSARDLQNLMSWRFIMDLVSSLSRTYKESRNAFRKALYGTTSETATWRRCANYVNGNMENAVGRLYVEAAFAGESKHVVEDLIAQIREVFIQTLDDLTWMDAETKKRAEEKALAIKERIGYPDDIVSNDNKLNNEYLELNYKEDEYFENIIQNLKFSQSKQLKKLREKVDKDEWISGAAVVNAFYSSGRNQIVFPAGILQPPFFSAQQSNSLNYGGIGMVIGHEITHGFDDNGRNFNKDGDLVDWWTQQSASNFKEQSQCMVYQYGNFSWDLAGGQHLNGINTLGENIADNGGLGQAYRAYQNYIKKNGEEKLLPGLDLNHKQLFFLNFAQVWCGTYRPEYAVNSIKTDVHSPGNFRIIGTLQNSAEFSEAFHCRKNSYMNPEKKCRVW
T2 sequence (P05067 672-713): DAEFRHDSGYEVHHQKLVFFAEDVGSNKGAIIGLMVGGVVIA

Molecule | activity of recombinant NEP [1] | activity of recombinant NEP in the presence of Aβ1-42 ([1]; neurolide 10 μM with Aβ1-42 at 0.5 μM or 5 μM) | development of ThT fluorescence (Aβ aggregation) (Aβ1-42; 75 μM Aβ1-42 + 10 μM peptide, 37 °C) | integrity after prolonged incubation [2] | rise of ThT fluorescence (Aβ aggregation) (Aβ1-42; 75 μM Aβ1-42 + 1 μM sNL1, 37 °C, Ex/Em 440/482 nm)
I: SEGNRWSNSTKGLFQRAKK-NH2 / II: SEGNRWSNSTKGLFQRAK / III: SEGNRWSNSTKGLFQRA / IV: SEGNRWSNSTKGLFQRA (amide I:18-IV:C, I:19-II:C, II:18-III:C; C-terminus assumed) [neurolide] | significantly inhibited | significantly inhibited | attenuate Aβ peptide aggregation | remained intact | 
NL1: recombinant rat neuroligin-1, soluble ectodomain (R&D systems) (protein, UniProt Q62765 46-697, looked up, extracellular domain) extracellular domain: QKLDDVDPLVTTNFGKIRGIKKELNNEILGPVIQFLGVPYAAPPTGEHRFQPPEPPSPWSDIRNATQFAPVCPQNIIDGRLPEVMLPVWFTNNLDVVSSYVQDQSEDCLYLNIYVPTEDVKRISKECARKPGKKICRKGDIRDSGGPKPVMVYIHGGSYMEGTGNLYDGSVLASYGNVIVITVNYRLGVLGFLSTGDQAAKGNYGLLDLIQALRWTSENIGFFGGDPLRITVFGSGAGGSCVNLLTLSHYSEGNRWSNSTKGLFQRAIAQSGTALSSWAVSFQPAKYARILATKVGCNVSDTVELVECLQKKPYKELVDQDVQPARYHIAFGPVIDGDVIPDDPQILMEQGEFLNYDIMLGVNQGEGLKFVENIVDSDDGVSASDFDFAVSNFVDNLYGYPEGKDVLRETIKFMYTDWADRHNPETRRKTLLALFTDHQWVAPAVATADLHSNFGSPTYFYAFYHHCQTDQVPAWADAAHGDEVPYVLGIPMIGPTELFPCNFSKNDVMLSAVVMTYWTNFAKTGDPNQPVPQDTKFIHTKPNRFEEVAWTRYSQKDQLYLHIGLKPRVKEHYRANKVNLWLELVPHLHNLNDISQYTSTTTKVPSTDITLRPTRKNSTPVTSAFPTAKQDDPKQQPSPFSVDQRDYSTELS | significantly inhibited |  |  | remained intact | significantly decreased
